In PubChem BioAssay AID179 (DTP/NCI, 2004) one finds EC50, IC50 and outcome data, which are given here for 54 molecules.

Molecules are shown by their SMILES. pEC50, pIC50: −log10 of the molar value. Active and inactive are the calls of the source.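 The calls were made as follows: active = compounds giving half or more protection of infected cells from virus-caused growth loss, again on retest; inactive = the rest.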

The test has as its system CEM cells HIV-1 protection, formazan growth assay. Briefly: NCI AIDS Antiviral Assay. The conditions noted are these: for pIC50: measured here: growth of uninfected CEM cells. The gist of the method: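 Human CEM cells, uninfected and HIV-1-infected, exposed to five drug concentrations; growth measured by soluble formazan assay and scored as percent protection from infection, with protecting compounds retested.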

In general, pEC50 refers to the negative decadic logarithm of the EC50, by convention in mol/L. As usually defined, the pIC50 is −log10 of the IC50, conventionally taken in molar units. Consider `COc1ccc2nc3c([N+](=O)[O-])ccc(NCCCN(C)C)c3c(NCCCN(C)C)c2c1`, for which the pEC50 is less than 3.70 and the pIC50 was 6.64.

Turning to `COc1cccc(N2C(=O)CSC2c2c[nH]c3ccccc23)c1` (stereo not drawn), the pEC50 is less than 4.65 and the pIC50 is less than 4.65.

For the molecule `COc1ccc2ccccc2c1CN1CCOCCOCCN(Cc2c(OC)ccc3ccccc23)CCOCCOCC1`, the pEC50 was less than 5.06 and the pIC50 was 5.31. Taken in the same sequence, the figures for `COc1ccc2c(c1)c1ccc3c(c1n2C)C(=O)C=CC3=O` were less than 4.05 and 5.53. In the same order, the values of `O=c1cc(O)nc2cn[nH]n12` are less than 3.63 and less than 3.63. For the molecule `C(CCC[Te][Te]CCCCCCOC1CCCCO1)CCOC1CCCCO1` (stereo not drawn), the outcome was inactive.

In the case of `CC(CCCC1SCC2NC(=O)NC21)C(=O)O` (stereo not drawn), the pEC50 was less than 3.01 and the pIC50 was less than 3.01. As to `ClC1c2ccccc2C2(c3ccccc3)OOC1(c1ccccc1)O2` (stereo not drawn), the outcome was inactive. Consider `C1=c2ccccc2=C2C(=C(c3ccccc3)C(c3ccccc3)=NN2c2ccccc2)S1`, for which the pEC50 is less than 5.33 and the negative logarithm of the IC50 (pIC50) is less than 5.33. Turning to `CP1(=O)CC(=O)CCCCC(=O)C1`, the result was inactive. For the molecule `c1ccc2c(c1)CCc1c-2n(CCN2CCCCC2)c2ccccc12`, the pEC50 was less than 3.70 and the pIC50 was 4.97. Taken in the same sequence, the figures for `Nc1nc(NCCOCP(=O)(O)O)c(N)c(=O)[nH]1` were less than 3.70 and less than 3.70. On to `CCOC(=O)/C(=C/c1ccc(OC)c(OC)c1)P(=O)(OCC)OCC`, for which the pEC50 was less than 3.17 and the negative logarithm of the IC50 (pIC50) is 4.07. In the same order, the values of `CC(=O)C(SSC(C(C)=O)C(C)=O)C(C)=O` are less than 3.70 and 5.07.

On to `Cc1sc(N=Nc2c(O)[nH]c3ccccc23)nc1-c1ccccc1`, for which the pEC50 was less than 3.70 and the pIC50 is 4.36. Taken in the same sequence, the figures for `Cc1cnc2c(c1)C(=O)N(c1ccc(Br)cc1)S2(=O)=O` were less than 3.70 and 4.23.

As for `O=c1[nH]nc(-c2cccc(Br)c2)[nH]1`, the pEC50 was less than 3.70 and the pIC50 was less than 3.70. In the case of `Cc1ccc(N=C2SC(=NN(C)C)SC2=Nc2ccc(C)cc2)cc1`, the pEC50 is less than 3.70 and the negative-log IC50 (pIC50) was less than 3.70. On to `O=[N+]([O-])c1ccc(C(O)(C#CCN2CCCC2)c2ccccc2)cc1` (stereo not drawn), for which the pEC50 was less than 3.70 and the negative-log IC50 (pIC50) is less than 4.00. `Cc1c2c(c(C)c3c1C(=O)c1cc4c(cc1C3=O)OCO4)OCO2`: the pEC50 was less than 3.70 and the negative logarithm of the IC50 (pIC50) was less than 3.70. In the case of `CN(C)/N=N/c1nc2c(c(=O)n(C)c(=O)n2C)n1CC1CO1` (stereo not drawn), the pEC50 is less than 3.70 and the pIC50 is 4.92. In the same order, the values of `Cc1cc(Cc2cc(C)c(NC(=O)C(=O)C3CCC4=C(SC5C=CC=CC5N4)C3=O)c(C(C)C)c2)cc(C(C)C)c1NC(=O)C(=O)C1CCC2=C(SC3C=CC=CC3N2)C1=O` (stereo not drawn) are less than 4.38 and 4.92. Taken in the same sequence, the figures for `C/C(CC1(O)C(=O)Nc2ccccc21)=N\O` (stereo not drawn) were less than 3.70 and less than 3.70. On to `CC(=O)Nc1oc(C)c(C)c1S(=O)(=O)c1ccc(Cl)cc1`, for which the pEC50 was less than 3.70 and the pIC50 was 3.97. Taken in the same sequence, the figures for `CC12CCC(CC1)C(C)(C)N=C(N)S2` were less than 3.70 and 4.25.

For `CCCC(O)S(=O)(=O)O` (stereo not drawn), the pEC50 is less than 3.70 and the negative logarithm of the IC50 (pIC50) was less than 3.70. Regarding `C=C(CC(=O)Nc1ccc(C(=O)OC)o1)C(=O)OC`, the pEC50 is less than 3.70 and the negative logarithm of the IC50 (pIC50) is 5.41. Taken in the same sequence, the figures for `COc1ccc(OC)c(/C=C/c2ccccc2)c1` were 7.20 and 3.96. Regarding `CCN(CC)CCOc1ccc(/C(C#N)=C/c2ccc(OCCN3CCCCC3)cc2)cc1`, the pEC50 is less than 3.70 and the negative-log IC50 (pIC50) was 6.08. Consider `CC(C(N)C(=O)NC(C(=O)O)C1OC(c2c[nH]c(=O)[nH]c2=O)C(O)C1O)C(O)c1ccc(O)cn1` (stereo not drawn), for which the result was inactive. Regarding `Cc1ccc(/C=C/C(=O)c2c([O-])on[n+]2-c2ccccc2)cc1`, the pEC50 was less than 3.70 and the negative logarithm of the IC50 (pIC50) is 5.58.

For the molecule `O=C(N=C1N(c2ccccc2)C(=O)C(=O)N1c1ccccc1)c1ccccc1`, the pEC50 was less than 3.70 and the negative-log IC50 (pIC50) is 5.25. In the same order, the values of `O=C(Nc1cccc2ccccc12)N1CCCC(Br)C1` (stereo not drawn) are less than 3.70 and 3.71. Turning to `COc1cc(-c2ccc(N=Nc3cc(S(=O)(=O)O)c4ccccc4c3O)c(OC)c2)ccc1N=Nc1cc(S(=O)(=O)O)c2ccccc2c1O`, the pEC50 was 3.87 and the negative-log IC50 (pIC50) is 3.85. `O=C1NC(=O)C(=Cc2ccccc2)C(=O)N1`: the pEC50 was less than 3.78 and the negative-log IC50 (pIC50) was less than 3.78.

In the case of `NC(=S)C(=S)N/C=C/c1nc2ccccc2[nH]c1=O`, the pEC50 was less than 3.70 and the negative logarithm of the IC50 (pIC50) is 5.10. Taken in the same sequence, the figures for `O=C1CN2C(Cl)(Cl)C2(c2ccccc2)c2cc(Cl)ccc2N1CC(F)(F)F` (stereo not drawn) were less than 3.70 and 4.53. Consider `O=C1c2ccccc2CCC1(Br)Cc1ccccc1` (stereo not drawn), for which the pEC50 is less than 3.70 and the negative-log IC50 (pIC50) was 4.69. For the molecule `Cc1c(NC=C(C#N)C#N)c(=O)n(-c2ccccc2)n1C`, the pEC50 is less than 3.70 and the negative-log IC50 (pIC50) was less than 3.70. Regarding `COc1ccccc1N/N=c1\c2nc3ccccc3nc1n(-c1ccccc1C)c(=S)n2-c1ccccn1`, the pEC50 was less than 3.70 and the negative logarithm of the IC50 (pIC50) is less than 4.00.

With `CCCCCCCCCCCCn1[se]c2ccccc2c1=O`, the negative-log EC50 (pEC50) was 5.30 and the pIC50 is 5.26. Take `N#CC(NC12CC3CC(CC(C3)C1)C2)c1ccccc1C(F)(F)F` (stereo not drawn): the pEC50 is less than 4.11 and the pIC50 is less than 4.11. For the molecule `CCOC(=O)/C(C#N)=N\Nc1ccc(-n2c(C)nc3ccccc3c2=O)cc1`, the pEC50 is less than 3.70 and the pIC50 is 4.05. On to `O=C1COCC(=O)N1`, for which the pEC50 was less than 2.66 and the negative logarithm of the IC50 (pIC50) is less than 2.66. Consider `CCOC(=O)/C(=C/c1cn(C(C)=O)c2ccccc12)P(=O)(OC)OC`, for which the pEC50 is less than 3.70 and the pIC50 is 4.14. In the same order, the values of `N/C(=N/O)C(F)(F)C(F)(F)C(F)(F)/C(N)=N\O` are less than 3.70 and less than 3.70.

`CC(=O)C(C(C)=O)=C1CCCC(O)O1` (stereo not drawn): the pEC50 was less than 3.70 and the pIC50 was 3.76. `Cc1cnc([C@H]2CCC3[C@@H]4CC=C5C[C@@H](O)CC[C@]5(C)C4CC[C@@]32C)s1` (stereo partly drawn): the pEC50 was less than 4.17 and the negative-log IC50 (pIC50) was less than 4.17. For `CCOC(=O)Nc1nn(-c2ccc3ccccc3n2)c(=O)[nH]1`, the pEC50 was less than 4.20 and the negative-log IC50 (pIC50) is 5.00. Taken in the same sequence, the figures for `O=C(/C=C/c1ccccc1)CCN1CCN(CCC(=O)/C=C/c2ccccc2)CC1` were less than 3.70 and 5.82.

For `O=C1c2ccccc2Sc2ccccc2N1CCN1CCN(c2ccc(F)cc2)CC1`, the pEC50 is less than 3.70 and the pIC50 is less than 3.70. As to `O=S1c2ccc(Cl)cc2CC(SSC2Cc3cc(Cl)ccc3S(=O)c3ccccc32)c2ccccc21` (stereo not drawn), the pEC50 was less than 5.33 and the pIC50 is less than 5.33. In the case of `Clc1ncc(Cl)c(Cl)n1`, the result was inactive.

`COc1ccc(/C=C2/C(=O)N(/C=C3\C(=O)Oc4ccccc4C3=O)C(=NC(C)=O)N2C)cc1OC`: the pEC50 was less than 3.70 and the negative-log IC50 (pIC50) was 3.90.
